Results from patent publication US4272507A, “Phenylaminothiophenacetic acids, their synthesis, compositions and use” (priority 1978, dated 1981).
Like-named read-outs stand apart in the source and are kept apart here.

Columns and labels:
[1] = versus phenylbutazone; cited from earlier work
[2] = versus phenylbutazone; cited from earlier work; remark: listed apart in the source
[3] = tested on: carrageenin edema of the hind paw of rats; assay: Acute antiphlogistic action: carrageenin edema of the hind paw of rats after single oral administration; conditions: for ED50: Rattus norvegicus, po, read-out: ED50 (dose which causes a maximum edema inhibition of 50%); for Therapeutic quotient LD50/ED50: carrageenin edema, LD50 7 days oral; for Therapeutic quotient LD50/ED50 / Maximum inhibition of carrageenin edema within 7 hours after oral administration: rats
Procedure: (§1) Biol. Med., 111 (1962) 544]}, on chronic inflammatory processes {Cotton pellet test on rats [Winter et al.: J. Pharmacol. exp. Therap., 141 (1963) 369]} and on adjuvant arthritis [based on the method of Perrine et al., Brit. J. Pharmacol., 21 (1963) 127] is determined.
The influence of the compounds to be tested on carrageenin edema of the hind paw of rats was determined as follows:
The rats are kept at 24° C.
The paw volume of each rat is determined (2 to 3 individual measurements in each case) before edema provocation and at hourly intervals for 7 hours after edema provacation. The average percentage paw swelling of each treated group determined at the specified times after the carrageenin injection is related to that of the untreated control group (=100%).
The maximum percentage edema inhibition serves as a measure of the antiphlogistic action.
The paw volume is determined plethysmometrically. Measuring principle: the volume of liquid displaced through the paw of the rat is recorded digitally via an electromechanical pressure transducer (Statham P 23 V, 0-200 mm Hg).
The doses indicated for the compounds tested were administered in a volume of liquid of 20 ml/kg.

[4] = Chronic antiphlogistic action: cotton pellet test (formation of granulation tissue) in rats; conditions: rat, in vivo, po
Procedure: as §1
(§2) Experimental procedure for investigating the influence of the compounds to be tested on the formation of granulation tissue after implantation of cotton in rats (so-called cotton pellet method):
(§3) 1 cotton pellet (manufacturer: Messrs. Hartmann/Heidenheim; cotton pellets size 2, No. 4865/2) which weighs 13.0±0.5 mg and has been impregnated beforehand with 0.1 ml of a solution of 0.5 mg of penicillin G and 0.8 mg of streptomycin sulfate/1 ml of distilled water is in each case implanted subcutaneously into the shoulder-blade region, on both sides, of male Sprague-Dawley rats (groups of 8 animals each; weight of each animal: 150 to 170 g) under diethyl ether anaesthesia and under sterile conditions. The cut skin is closed by means of clamps.
(§4) The compounds to be tested (in the form of the sodium salt in aqueous solution) or the corresponding amount (5 ml/kg/day) of tapwater (=control group) are administered orally each day on seven successive days. On the eighth day, the animals are killed and the cotton granules are exposed carefully, that is to say preserving the fibrous tissue capsule, dried (15 hours at 120°) and weighed. By substracting the weight of the cotton pellets, the amount of newly formed granulation tissue is obtained.
(§5) The percentage reduction in the average granuloma dry weight of a treated group compared with the control group (=100%) serves as a measure of the antiproliferative action of a compound.

[5] = tested on: formation of granulation tissue after subcutaneous implantation of cotton; assay: as above; conditions: rats; for Therapeutic quotient LD50/ED20: cotton pellet test, LD50 7 days oral; for Inhibition of the formation of granulation tissue after treatment for 7 days: sodium salt
Procedure: as §1, §2, §3, §4, §5

[6] = tested on: adjuvant arthritis in rats; assay: Antiarthritic action: adjuvant arthritis in rats (Mycobacterium butyricum); conditions: for ED25: Rattus norvegicus, po, 120 h, read-out: ED25 (inhibition of adjuvant arthritis of 25%); for therapeutic quotient LD50/ED25: adjuvant arthritis, LD50 7 days oral, rats
Procedure: as §1
The influence of the compounds to be tested on polyarthritis in rats caused by Mycobacterium butyricum (so-called "adjuvant arthritis") was determined using the experimental arrangement hereafter described: based on the method described by NEWBOULD and PERRINE et al. [NEWBOULD, B. B.; Brit. J. Pharmacol. 21, 127 (1963); and PERRINE, J. W. and TAKESUE, E. I.; Arch. int. Pharmacodyn., 174, 192 to 198 (1968)], so-called adjuvant arthritis, which manifests itself chiefly in a severe swelling of the tail (primary lesion) and of the paws (secondary lesion), is caused in rats by intradermal injection of a Mycobact. butyricum suspension in liquid paraffin into the base of the tail. Antiphlogistic agents inhibit this swelling reaction.

[7] = tested on: pain reaction provoked in rats by bending an inflamed ankle (AgNO3 arthritis); assay: animal or person; type: in vivo; conditions: for Therapeutic quotient LD50/ED50 / therapeutic quotient LD50/ED25: AgNO3 arthritis pain, LD50 7 days oral; for Therapeutic quotient LD50/ED50 / therapeutic quotient LD50/ED25 / ED50 / Inhibition of the pain reaction: rats; for ED25 / ED50: Rattus norvegicus, po; for ED25: read-out: ED25 (dose which completely suppresses the pain reaction in 25% of the animals); for ED50: perorally, at the time of maximum action, read-out: ED50 (dose which completely suppresses the pain reaction in 50% of the animals)
Procedure: Based on the method of HOFFMEISTER et al. [Arzneim. Forsch., 24, (1974) 600], 0.2 ml of a 1% strength silver nitrate solution is injected into the ankle joint (inside) of the right hind paw of female Sprague-Dawley rats (each animal weighing about 160 to 180 g) under ether anaesthesia. The animals are kept at 24° C. and are fed Altromin®R and water ad libitum. After the AgNO3 injection, almost all the animals (90 to 95%) can be made to cry out by moderate bending of the ankle joint. All the animals reacting positively are collected into groups of 10 animals. The compounds to be tested are administered orally in a volume of liquid of 10 ml/kg immediately after administration of the AgNO3; the untreated control animals receive the corresponding amount of tapwater.
Over a period of 4 hours after administration of the substance, the number of animals reacting is determined at half hourly intervals.
The maximum percentage of the protected animals over a period of 4 hours after administration of the substance [relative to the number of animals in the control group reacting (=100%)] serves as a measure of the analgesic action.

[8] = tested on: yeast-induced fever in rats; assay: Antipyretic action: yeast-induced fever in rats; type: in vivo, rats (female Sprague-Dawley); conditions: for ED (1.5 degC): Rattus norvegicus, po, read-out: ED1.5 (dose which causes a maximum reduction in yeast-induced fever of 1.5° C.)
Procedure: The antipyretic action is determined by the influence of the compounds to be tested on yeast-induced fever in rats.
Hyperthermia is produced in female Sprague-Dawley rats (in groups of 5 animals; weight of each animal: 160 to 180 g) by subcutaneous injection (neck) of 10 ml/kg of a 20 percent strength aqueous brewer's yeast suspension (brewer's yeast "Heliosan"/Hefereformwerk Radolfzell). 24 hours after the yeast injection, the compounds to be tested are administered orally to the animals in a volume of liquid of 5 ml/kg, and a control group receives the corresponding amount of tapwater. The feed (Altromin®R, water ad libitum) was withdrawn from the rats 18 hours beforehand. The rats are kept at about 23° C.
The body temperature is recorded 1 hour before administration of the substance and at hourly intervals after administration of the substance.
[…] The body temperature is measured with a temperature probe (Tastomed H, Braun electronic).

in vivo = conditions: rat, po

Row | Compound | ED50 [3] [mg/kg] | Therapeutic quotient LD50/ED50 [3] | Maximum inhibition of carrageenin edema within 7 hours after oral administration ([3]; single oral dose 1.0 mg/kg) [%] | Maximum inhibition of carrageenin edema within 7 hours after oral administration ([3]; single oral dose 3.0 mg/kg) [%] | Therapeutic quotient LD50/ED20 [5] | Inhibition of the formation of granulation tissue after treatment for 7 days ([5]; 7 x 0.1 mg/kg/day orally) [%] | Inhibition of the formation of granulation tissue after treatment for 7 days ([5]; 7 x 0.3 mg/kg/day orally) [%] | Inhibition of the formation of granulation tissue after treatment for 7 days ([5]; 7 x 1.0 mg/kg/day orally) [%] | Inhibition of the formation of granulation tissue after treatment for 7 days ([5]; 7 x 3.0 mg/kg/day orally) [%] | ED25 [6] [mg/kg/day] | therapeutic quotient LD50/ED25 [6] | Therapeutic quotient LD50/ED50 [7] | therapeutic quotient LD50/ED25 [7] | ED25 [7] [mg/kg] | ED50 [7] [mg/kg] | Inhibition of the pain reaction ([7]; single oral dose 1 mg/kg) [%] | Inhibition of the pain reaction ([7]; single oral dose 3 mg/kg) [%] | Maximum reduction in yeast-induced fever over a period of 7 hours ([8]; rats, single oral dose 1 mg/kg) [°C] | LD50 at 168 h (in vivo) [mg/kg] | other results
1 | Cc1cccc(Nc2cscc2C(=O)O)c1C [2,3-dimethylphenyl compound] |  |  |  |  |  |  |  |  |  |  |  |  |  |  |  |  |  |  |  | antiphlogistic action [1]: comparable to that of phenylbutazone; antipyretic action [2]: superior
2 | COc1ccc2c(c1)c(CC(=O)O)c(C)n2C(=O)c1ccc(Cl)cc1 [Compound 2, indomethacin, reference compound] | 4.6 | 1.2 | 29 | 47 | ~ 1.8 | 7 | 11 | 16 | 16 | 0.18 | 30.6 | 0.92 | 4.58 | 1.2 | 6 | 23 | 36 | 0.2 | 5.5 | Maximum inhibition of carrageenin edema within 7 hours after oral administration ([3]; single oral dose 10.0 mg/kg): 56%; mortality at 168 h ([4]; 5 mg/kg/day): 25%; Inhibition of the formation of granulation tissue after treatment for 7 days ([5]; 7 x 4.0 mg/kg/day orally): 17%; Inhibition of the pain reaction ([7]; single oral dose 6 mg/kg): 50%; ED (1.5 degC) [8]: 5 mg/kg; Maximum reduction in yeast-induced fever over a period of 7 hours ([8]; rats, single oral dose 3 mg/kg): 0.7 °C; Maximum reduction in yeast-induced fever over a period of 7 hours ([8]; rats, single oral dose 6 mg/kg): 1.8 °C
3 | O=C(O)Cc1cscc1Nc1c(Cl)cccc1Cl [Compound 3, 4-(2,6-dichloroanilino)-3-thiophenacetic acid] | 1.6 | 6.9 | 46 | 56 | ~ 11 | 6 | 15 | 14 | 22 | 0.2 | 55 | 3.67 | 11 | 1 | 3 | 26 | 50 | 1.7 | 11 | Maximum inhibition of carrageenin edema within 7 hours after oral administration ([3]; single oral dose 0.3 mg/kg): 29%; mortality at 168 h ([4]; 6 mg/kg/day): 0%; Inhibition of the formation of granulation tissue after treatment for 7 days ([5]; 7 x 5.0 mg/kg/day orally): 22%; Inhibition of the formation of granulation tissue after treatment for 7 days ([5]; 7 x 6.0 mg/kg/day orally): 36%; Inhibition of the pain reaction ([7]; single oral dose 10 mg/kg): 62%; ED (1.5 degC) ([8]; rats, perorally, single dose): 0.4 mg/kg; Maximum reduction in yeast-induced fever over a period of 7 hours ([8]; rats, single oral dose 0.03 mg/kg): 0.4 °C; Maximum reduction in yeast-induced fever over a period of 7 hours ([8]; rats, single oral dose 0.1 mg/kg): 0.8 °C; Maximum reduction in yeast-induced fever over a period of 7 hours ([8]; rats, single oral dose 0.3 mg/kg): 1.4 °C
